In patent publication US20080051429A1, “USE OF 4-AMINO-PIPERIDINES FOR TREATING SLEEP DISORDERS” (priority 2006, published 2008):

Key:
Test in all cases: R-SAT broad profiling
Format in all cases: cell-based
alpha 2C = molecular target: T1, alpha 2C (Homo sapiens, UniProt P18825); conditions: read-out: pEC50/pIC50 (converted)
T1 construct: expressed in transfected cells; host or cells: NIH3T3
T1 sequence (P18825 1-462): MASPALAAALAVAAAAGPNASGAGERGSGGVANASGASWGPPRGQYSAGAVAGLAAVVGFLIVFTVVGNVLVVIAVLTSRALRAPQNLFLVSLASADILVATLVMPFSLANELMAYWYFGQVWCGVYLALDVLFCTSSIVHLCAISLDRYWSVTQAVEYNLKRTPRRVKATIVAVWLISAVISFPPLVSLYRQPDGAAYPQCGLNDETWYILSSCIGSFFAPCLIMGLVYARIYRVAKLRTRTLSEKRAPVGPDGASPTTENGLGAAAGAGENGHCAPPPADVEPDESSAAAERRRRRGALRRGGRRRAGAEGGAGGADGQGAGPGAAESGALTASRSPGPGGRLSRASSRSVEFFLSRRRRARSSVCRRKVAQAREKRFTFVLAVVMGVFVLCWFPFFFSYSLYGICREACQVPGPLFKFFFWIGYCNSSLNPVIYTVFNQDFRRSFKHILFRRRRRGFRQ
Experimental: (§1) The functional receptor assay, Receptor Selection and Amplification Technology (R-SAT), was used (with minor modifications from that previously described U.S. Pat. No. 5,707,798) to screen compounds for efficacy at the 5-HT2A receptor. Briefly, NIH3T3 cells were grown in 96 well tissue culture plates to 70-80% confluence. Cells were transfected for 12-16 hours with plasmid DNAs using superfect (Qiagen Inc.) as per manufacture's protocols. R-SAT's were generally performed with 50 ng/well of receptor and 20 ng/well of Beta-galactosidase plasmid DNA. All receptor and G-protein constructs used were in the pSI mammalian expression vector (Promega Inc) as described in U.S. Pat. No. 5,707,798. The 5HT2A receptor gene was amplified by nested PCR from brain cDNA using the oligodeoxynucleotides based on the published sequence (see Saltzman et. al. Biochem. Biophys. Res. Comm. 181:1469-78 (1991)). Large-scale transfections, cells were transfected for 12-16 hours, then trypsinized and frozen in DMSO. Frozen cells were later thawed, plated at 10,000-40,000 cells per well of a 96 well plate that contained drug. With both methods, cells were then grown in a humidified atmosphere with 5% ambient CO2 for five days. Media was then removed from the plates and marker gene activity was measured by the addition of the beta-galactosidase substrate ONPG (in PBS with 5% NP-40). The resulting colorimetric reaction was measured in a spectrophotometric plate reader (Titertek Inc.)at […]. All data were analyzed using the computer program XLFit (IDBSm). Efficacy is the percent maximal repression compared to repression by a control compound (ritanserin in the case of 5HT2A). pIC50 is the negative of the log(IC50), where IC50 is the calculated concentration in Molar that produces 50% maximal repression.
(§2) The R-SAT assay (described above in example 136) was used to investigate the selectivity of 2-(4-Methoxyphenyl)-N-(4-methylbenzyl)-N-(1-methylpiperidin-4-yl)acetamide hydrochloride.

Vasopressin1A = molecular target: T2, Vasopressin1A (Homo sapiens, UniProt P37288); conditions: agonist; read-out: pEC50/pIC50 (converted)
T2 construct: expressed in transfected cells; host or cells: NIH3T3
Experimental: as §1, §2

5-HT7 = molecular target: T3, 5-HT7 (Homo sapiens, UniProt P34969); conditions: read-out: pEC50/pIC50 (converted)
T3 construct: expressed in transfected cells
Experimental: as §1, §2

5-HT4 = molecular target: T4, 5-HT4 (Homo sapiens, UniProt Q13639); conditions: read-out: pEC50/pIC50 (converted)
T4 construct: expressed in transfected cells
Experimental: as §1, §2

beta 2 = molecular target: T5, beta 2 (Homo sapiens, UniProt P07550); conditions: read-out: pEC50/pIC50 (converted)
T5 construct: expressed in transfected cells; host or cells: NIH3T3
Experimental: as §1, §2

Histamine 1 = molecular target: T6, Histamine 1 (Homo sapiens, UniProt P35367); conditions: read-out: pEC50/pIC50 (converted)
T6 construct: expressed in transfected cells; host or cells: NIH3T3
Experimental: as §1, §2

alpha-1A(a/c) = molecular target: T7, alpha-1A(a/c) (Homo sapiens, UniProt P35348); conditions: read-out: pEC50/pIC50 (converted)
T7 construct: expressed in transfected cells; host or cells: NIH3T3
Experimental: as §1, §2

Histamine 2 = molecular target: T8, Histamine 2 (Homo sapiens, UniProt P25021); conditions: read-out: pEC50/pIC50 (converted)
T8 construct: expressed in transfected cells; host or cells: NIH3T3
Experimental: as §1, §2

K-opiod = molecular target: T9, K-opiod (Homo sapiens, UniProt P41145); conditions: agonist; read-out: pEC50/pIC50 (converted)
T9 construct: expressed in transfected cells; host or cells: NIH3T3
Experimental: as §1, §2

endothelinB = molecular target: T10, endothelinB (Homo sapiens, UniProt P24530); conditions: agonist; read-out: pEC50/pIC50 (converted)
T10 construct: expressed in transfected cells; host or cells: NIH3T3
Experimental: as §1, §2

Histamine 3 = molecular target: T11, Histamine 3 (Homo sapiens, UniProt Q9Y5N1); conditions: read-out: pEC50/pIC50 (converted)
T11 construct: expressed in transfected cells; host or cells: NIH3T3
Experimental: as §1, §2

5-HT6 = molecular target: T12, 5-HT6 (Homo sapiens, UniProt P50406); conditions: read-out: pEC50/pIC50 (converted)
T12 construct: expressed in transfected cells
Experimental: as §1, §2

D5 = molecular target: T13, D5 (Homo sapiens, UniProt P21918); conditions: read-out: pEC50/pIC50 (converted)
T13 construct: expressed in transfected cells; host or cells: NIH3T3
Experimental: as §1, §2

m5 = molecular target: T14, m5 (Homo sapiens, UniProt P08912); conditions: read-out: pEC50/pIC50 (converted)
T14 construct: expressed in transfected cells; host or cells: NIH3T3
T14 sequence (P08912 1-532): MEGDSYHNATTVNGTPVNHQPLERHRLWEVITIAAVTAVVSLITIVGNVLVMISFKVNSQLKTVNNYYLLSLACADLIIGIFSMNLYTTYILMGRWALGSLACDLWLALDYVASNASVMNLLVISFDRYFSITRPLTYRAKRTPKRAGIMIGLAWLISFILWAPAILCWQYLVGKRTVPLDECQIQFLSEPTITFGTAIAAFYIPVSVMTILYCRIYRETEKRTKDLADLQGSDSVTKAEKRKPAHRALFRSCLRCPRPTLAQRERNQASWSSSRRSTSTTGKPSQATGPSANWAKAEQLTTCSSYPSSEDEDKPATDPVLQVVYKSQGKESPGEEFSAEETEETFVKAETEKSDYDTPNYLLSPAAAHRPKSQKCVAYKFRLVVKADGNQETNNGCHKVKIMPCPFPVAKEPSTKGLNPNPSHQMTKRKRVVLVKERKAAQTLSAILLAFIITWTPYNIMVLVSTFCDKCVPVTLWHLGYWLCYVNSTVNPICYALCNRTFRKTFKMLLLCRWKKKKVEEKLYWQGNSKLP
Experimental: as §1, §2

T5 sequence (P07550 whole entry): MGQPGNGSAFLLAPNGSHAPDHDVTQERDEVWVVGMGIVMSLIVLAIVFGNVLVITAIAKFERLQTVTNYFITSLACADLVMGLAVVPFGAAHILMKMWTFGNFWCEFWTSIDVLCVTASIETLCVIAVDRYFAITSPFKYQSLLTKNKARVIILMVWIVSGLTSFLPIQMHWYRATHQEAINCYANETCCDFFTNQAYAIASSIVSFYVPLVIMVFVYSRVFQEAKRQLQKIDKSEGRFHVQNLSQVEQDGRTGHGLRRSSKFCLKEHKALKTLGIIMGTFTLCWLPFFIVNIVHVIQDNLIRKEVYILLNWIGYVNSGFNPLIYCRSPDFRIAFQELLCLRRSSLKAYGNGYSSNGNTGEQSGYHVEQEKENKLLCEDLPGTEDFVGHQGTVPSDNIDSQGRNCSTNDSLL
T4 sequence (Q13639 1-387 isoform Q13639-2, species assumed): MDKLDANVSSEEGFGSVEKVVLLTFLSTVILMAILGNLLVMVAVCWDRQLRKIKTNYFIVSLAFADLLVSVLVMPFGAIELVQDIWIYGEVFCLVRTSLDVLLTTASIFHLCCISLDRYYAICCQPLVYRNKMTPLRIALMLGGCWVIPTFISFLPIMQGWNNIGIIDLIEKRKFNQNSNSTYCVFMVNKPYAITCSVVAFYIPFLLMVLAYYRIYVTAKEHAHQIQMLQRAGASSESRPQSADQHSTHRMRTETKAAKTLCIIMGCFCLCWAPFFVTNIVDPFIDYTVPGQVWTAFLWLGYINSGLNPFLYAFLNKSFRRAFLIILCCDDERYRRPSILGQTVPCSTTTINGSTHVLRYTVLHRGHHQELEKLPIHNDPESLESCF
T8 sequence (P25021 whole entry): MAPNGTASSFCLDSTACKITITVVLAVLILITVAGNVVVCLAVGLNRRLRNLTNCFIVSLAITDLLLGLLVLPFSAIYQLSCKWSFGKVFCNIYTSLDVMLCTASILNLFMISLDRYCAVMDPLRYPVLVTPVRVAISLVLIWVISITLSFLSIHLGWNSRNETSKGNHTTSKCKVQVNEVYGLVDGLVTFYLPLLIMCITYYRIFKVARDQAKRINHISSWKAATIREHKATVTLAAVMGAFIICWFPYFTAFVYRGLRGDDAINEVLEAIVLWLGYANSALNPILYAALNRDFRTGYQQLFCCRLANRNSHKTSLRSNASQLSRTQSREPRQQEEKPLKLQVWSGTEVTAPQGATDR
T13 sequence (P21918 whole entry): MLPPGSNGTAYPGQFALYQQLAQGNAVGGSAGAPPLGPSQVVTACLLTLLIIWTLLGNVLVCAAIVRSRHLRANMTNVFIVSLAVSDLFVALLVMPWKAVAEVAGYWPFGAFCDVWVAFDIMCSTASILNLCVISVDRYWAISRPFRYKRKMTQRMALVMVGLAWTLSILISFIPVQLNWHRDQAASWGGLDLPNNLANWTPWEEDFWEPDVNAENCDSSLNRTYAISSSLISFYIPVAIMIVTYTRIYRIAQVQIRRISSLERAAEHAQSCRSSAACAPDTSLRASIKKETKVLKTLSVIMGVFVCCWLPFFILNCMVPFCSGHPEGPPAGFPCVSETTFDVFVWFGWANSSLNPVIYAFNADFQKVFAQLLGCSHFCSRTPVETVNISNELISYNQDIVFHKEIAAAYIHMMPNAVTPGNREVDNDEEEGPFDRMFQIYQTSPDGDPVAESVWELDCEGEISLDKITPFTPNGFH
T6 sequence (P35367 whole entry): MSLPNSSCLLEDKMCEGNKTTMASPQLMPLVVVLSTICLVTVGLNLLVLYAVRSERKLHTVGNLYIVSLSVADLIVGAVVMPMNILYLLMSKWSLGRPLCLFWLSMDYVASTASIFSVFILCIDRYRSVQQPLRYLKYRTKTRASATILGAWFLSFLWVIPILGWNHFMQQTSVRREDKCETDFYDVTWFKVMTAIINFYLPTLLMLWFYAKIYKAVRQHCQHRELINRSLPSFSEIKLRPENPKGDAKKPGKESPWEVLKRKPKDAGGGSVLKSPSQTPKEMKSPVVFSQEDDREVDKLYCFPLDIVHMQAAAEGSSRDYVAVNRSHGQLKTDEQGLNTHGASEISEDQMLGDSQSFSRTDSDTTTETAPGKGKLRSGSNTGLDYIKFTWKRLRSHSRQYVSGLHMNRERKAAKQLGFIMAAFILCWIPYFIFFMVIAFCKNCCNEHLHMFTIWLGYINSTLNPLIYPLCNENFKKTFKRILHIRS
T3 sequence (P34969 whole entry, species assumed): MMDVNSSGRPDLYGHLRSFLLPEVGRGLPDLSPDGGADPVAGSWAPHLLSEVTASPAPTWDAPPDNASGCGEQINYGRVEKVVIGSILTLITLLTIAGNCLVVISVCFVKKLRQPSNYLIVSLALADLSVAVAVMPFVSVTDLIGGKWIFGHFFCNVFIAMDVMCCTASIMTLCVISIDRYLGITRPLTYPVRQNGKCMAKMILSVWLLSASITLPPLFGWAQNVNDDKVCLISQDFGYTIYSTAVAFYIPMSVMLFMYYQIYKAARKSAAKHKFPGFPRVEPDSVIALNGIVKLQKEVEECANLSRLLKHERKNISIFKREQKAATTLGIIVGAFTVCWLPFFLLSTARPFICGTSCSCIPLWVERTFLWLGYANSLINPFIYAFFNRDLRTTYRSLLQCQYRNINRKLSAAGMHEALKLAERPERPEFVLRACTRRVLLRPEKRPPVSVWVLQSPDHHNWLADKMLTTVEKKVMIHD
T12 sequence (P50406 whole entry, species assumed): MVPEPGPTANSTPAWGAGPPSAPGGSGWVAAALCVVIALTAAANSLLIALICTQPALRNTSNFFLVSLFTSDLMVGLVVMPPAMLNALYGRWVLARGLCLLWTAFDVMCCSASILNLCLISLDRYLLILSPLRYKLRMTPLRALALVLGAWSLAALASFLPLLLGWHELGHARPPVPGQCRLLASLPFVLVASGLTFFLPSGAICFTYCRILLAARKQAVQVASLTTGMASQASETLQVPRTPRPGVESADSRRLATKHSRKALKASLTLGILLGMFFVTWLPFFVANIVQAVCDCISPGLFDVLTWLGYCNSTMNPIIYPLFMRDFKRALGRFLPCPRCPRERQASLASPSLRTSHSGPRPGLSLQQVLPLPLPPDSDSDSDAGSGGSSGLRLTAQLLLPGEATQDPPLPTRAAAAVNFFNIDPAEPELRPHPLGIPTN
T11 sequence (Q9Y5N1 whole entry): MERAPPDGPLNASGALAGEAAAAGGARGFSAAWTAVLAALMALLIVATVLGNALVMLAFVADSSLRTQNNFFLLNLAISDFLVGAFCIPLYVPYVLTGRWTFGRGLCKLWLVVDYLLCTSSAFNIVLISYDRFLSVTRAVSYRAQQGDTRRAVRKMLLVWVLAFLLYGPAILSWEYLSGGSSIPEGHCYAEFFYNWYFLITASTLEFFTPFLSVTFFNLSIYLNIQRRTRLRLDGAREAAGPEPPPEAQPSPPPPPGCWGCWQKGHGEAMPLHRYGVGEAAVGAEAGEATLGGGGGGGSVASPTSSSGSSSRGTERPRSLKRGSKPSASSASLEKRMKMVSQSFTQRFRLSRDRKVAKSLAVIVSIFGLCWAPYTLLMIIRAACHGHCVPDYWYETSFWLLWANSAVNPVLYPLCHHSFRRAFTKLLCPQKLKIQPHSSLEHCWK
T7 sequence (P35348 whole entry): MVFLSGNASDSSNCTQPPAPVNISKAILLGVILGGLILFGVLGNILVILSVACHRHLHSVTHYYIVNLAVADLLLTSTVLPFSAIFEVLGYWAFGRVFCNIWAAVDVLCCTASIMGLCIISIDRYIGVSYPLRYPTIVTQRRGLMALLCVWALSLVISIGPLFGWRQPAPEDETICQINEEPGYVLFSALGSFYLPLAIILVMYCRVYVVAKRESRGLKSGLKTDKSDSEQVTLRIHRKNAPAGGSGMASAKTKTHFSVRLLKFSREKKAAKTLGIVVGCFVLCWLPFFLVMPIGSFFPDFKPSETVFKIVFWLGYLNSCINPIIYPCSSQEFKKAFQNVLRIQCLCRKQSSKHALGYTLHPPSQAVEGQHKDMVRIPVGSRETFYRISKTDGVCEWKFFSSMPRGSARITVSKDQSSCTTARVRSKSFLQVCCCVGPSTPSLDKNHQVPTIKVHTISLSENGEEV
T10 sequence (P24530 27-442): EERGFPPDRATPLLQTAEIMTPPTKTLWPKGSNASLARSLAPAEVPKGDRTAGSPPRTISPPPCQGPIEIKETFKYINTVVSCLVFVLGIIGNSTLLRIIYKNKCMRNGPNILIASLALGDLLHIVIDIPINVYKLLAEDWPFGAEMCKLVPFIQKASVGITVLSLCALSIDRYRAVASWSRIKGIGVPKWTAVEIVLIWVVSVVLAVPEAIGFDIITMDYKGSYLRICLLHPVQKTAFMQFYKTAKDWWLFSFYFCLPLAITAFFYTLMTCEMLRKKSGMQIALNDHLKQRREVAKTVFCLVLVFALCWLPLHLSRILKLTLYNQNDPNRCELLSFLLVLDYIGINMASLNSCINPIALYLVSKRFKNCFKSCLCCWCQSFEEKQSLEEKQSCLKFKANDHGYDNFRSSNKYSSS
T9 sequence (P41145 whole entry): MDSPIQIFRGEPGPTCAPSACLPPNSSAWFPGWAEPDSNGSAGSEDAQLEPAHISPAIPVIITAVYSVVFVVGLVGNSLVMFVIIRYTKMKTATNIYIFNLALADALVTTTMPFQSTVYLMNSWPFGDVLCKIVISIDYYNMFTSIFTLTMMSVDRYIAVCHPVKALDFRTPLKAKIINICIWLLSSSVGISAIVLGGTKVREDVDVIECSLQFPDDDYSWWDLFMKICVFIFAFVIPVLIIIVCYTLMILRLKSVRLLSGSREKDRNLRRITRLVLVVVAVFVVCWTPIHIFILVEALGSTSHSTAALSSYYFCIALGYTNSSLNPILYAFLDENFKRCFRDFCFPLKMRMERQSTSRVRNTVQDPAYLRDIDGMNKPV

An EC50 (alpha 2C; agonist) greater than 3.16 µM, an IC50 (alpha 2C; antagonist) greater than 3.16 µM and an EC50 (Vasopressin1A) greater than 3.16 µM were found for COc1ccc(CC(=O)N(Cc2ccc(C)cc2)C2CCN(C)CC2)cc1 [Example 50ELH27, 2-(4-Methoxyphenyl)-N-(4-methylbenzyl)-N-(1-methylpiperidin-4-yl)acetamide] in this work. The EC50 (5-HT7; agonist) was greater than 3.16 µM, the IC50 (5-HT7; inverse agonist) was 0.126 µM and the EC50 (5-HT4; agonist) was greater than 3.16 µM. The IC50 (5-HT4; inverse agonist) was greater than 3.16 µM, the EC50 (beta 2; agonist) was greater than 3.16 µM and the IC50 (beta 2; antagonist) was greater than 3.16 µM. It also gave an IC50 (Histamine 1; Inv. Agonist) greater than 3.16 µM, an EC50 (Histamine 1; agonist) greater than 3.16 µM and an EC50 (alpha-1A(a/c); agonist) greater than 3.16 µM. The IC50 (alpha-1A(a/c); antagonist) was greater than 3.16 µM, the EC50 (Histamine 2; agonist) was greater than 3.16 µM and the IC50 (Histamine 2; antagonist) was greater than 3.16 µM. For the same compound, the EC50 (K-opiod) was greater than 3.16 µM, the EC50 (endothelinB) was greater than 3.16 µM and the EC50 (Histamine 3; agonist) was greater than 3.16 µM. It also gave an IC50 (Histamine 3; antagonist) greater than 3.16 µM, an IC50 (5-HT6; Inv. Agonist) of 0.158 µM and an EC50 (5-HT6; agonist) greater than 3.16 µM. For the same compound, the EC50 (D5; agonist) was greater than 3.16 µM, the IC50 (D5; antagonist) was greater than 3.16 µM and the EC50 (m5; agonist) was greater than 3.16 µM. It also gave an IC50 (m5; antagonist) greater than 3.16 µM.
